Experimental data taken from patent publication US20230083417A1, “THERAPEUTIC COMBINATION FOR THE TREATMENT OF BRAIN ISCHEMIA AND SAID THERAPEUTIC COMBINATION FOR USE IN THE TREATMENT OF BRAIN ISCHEMIA” (Universiteit Maastricht, priority 2020, published 2023).
Entries after “also recorded” stand apart in the source; their conditions may differ.

Tests used:
[1] = test system: rat hippocampal brain slices; assay: Rat hippocampal brain slices, OGD and re-oxygenation, cell viability by MTT; format: cell-based; settings: 15 min OGD, 2 h re-oxygenation, GKT136901 0.1 μM, L-NAME 0.3 μM, BAY60-2770 0.01 μM, separately or combined at identical concentrations, vs untreated OGD
From the text: Rat Hippocampal Brain Slice Experiments. —2-3 months old adult male Sprague-Dawley rats were used. For hippocampal slices preparation and induction of oxygen deprivation and glucose deprivation (OGD), animals were decapitated and the brains were removed and transferred into ice-cold Krebs bicarbonate dissection buffer containing glucose and sucrose. Thereafter, hippocampi were dissected and sectioned in transverse slices of 250 μm. To stabilize tissue after slicing, slices were transferred to sucrose-free dissection buffer during 45 minutes at 34° C. Then, control group slices were incubated 15 minutes in a Krebs solution. Slices subjected to OGD were incubated in a Krebs buffer pre-bubbled with 95% N2/5% CO2, where 2-deoxyglucose replaced glucose. OGD period was followed by 2 h of re-oxygenation at 37° C. where slices were returned back to an oxygenated Krebs solution containing glucose^8. During the re-oxygenation period, slices were treated with 0.01 μM BAY60-2770 (BAY; sGCa), 0.1 μM GKT136901 (GKT; NOXi) and 0.3 μM L-NAME (LN; NOSi) separately and in combination at identical respective doses of: NOXi and NOSi, NOSi and sGCa, NOXi and sGCa, and NOXi, NOSi and sGCa. Cellular viability was quantified by their ability to reduce MTT. After re-oxygenation, slices were incubated with MTT (0.5 mg/ml) in Krebs bicarbonate solution for 40 minutes at 37° C. The formazan produced was solubilized by adding 200 μl dimethyl sulfoxide, giving a colored compound whose optical density was measured in an ELISA microplate reader at 540 nm^9. The results of these measurements are depicted in FIG. 2, FIG. 4, FIG. 6 and FIG. 7.

[2] = test system: C57BL/6J mice subjected to middle cerebral artery occlusion (MCAO); assay: In vivo MCAO ischemia model (1 h tMCAO), infarct volume by TTC; settings: for infarct volume: i.p. 1 h after reperfusion, L-NAME 3 mg/kg, GKT136901 10 mg/kg, BAY60-2770 0.5 μg/kg; for infarct volume / infarct size, single therapy: 24 h; for infarct volume / infarct volume, subthreshold doses and triple combination: alone or combined at identical doses; for infarct volume, subthreshold doses and triple combination: 1 h post-ischemia, i.p., PTU 3 mg/kg, PPZ 1 mg/kg, riociguat 0.004 mg/kg; for infarct size, single therapy: i.p. 1 h post-reperfusion, perphenazine 3 mg/kg, PTU 9 mg/kg, riociguat 0.01 mg/kg
Protocol: In vivo MCAO Ischemia Model. —C57BL/6J mice were subjected to middle cerebral artery occlusion (MCAO) during 1 h followed by 24 h of reperfusion. Mice were anesthetized with 1.5% isoflurane (Abbott) in a 70% N2O/30% O2 mixture. Core body temperature was maintained at 37° C. The external carotid artery was ligated and a rubber-coated 6.0 nylon monofilament (6021; Doccol) was inserted to occlude the origin of the right MCA for 60 minutes. Then, animals were re-anesthetized and the occluding monofilament was withdrawn to allow for reperfusion^10. L-NAME (NOSi, 3 mg/kg) or propylthiouracil (NOSi, 9 mg/kg), GKT136901 (NOXi, 10 mg/kg) or perphenazine (NOXi, 3 mg/kg) and BAY60-2770 (sGCa, 0.5 μg/kg) or riociguat (sGCs, 0.1 mg/kg), as well as combinations of these compounds were dissolved and vehicle or compound(s) were injected intraperitoneally (i.p.) 1 h after reperfusion. After 23 h of reperfusion animals were sacrificed and brains were quickly removed and cut in 3 2-mm thick coronal sections. The slices were stained for 10 minutes at 37° C. with 2% 2,3,5-triphenyltetrazolium chloride (TTC, Sigma-Aldrich) in PBS to visualize the infarct volume. The results of these measurements are shown in FIG. 1, FIG. 3, FIG. 5 and FIG. 9.
Based on a repurposing strategy, already marketed compounds validated as NOX inhibitors and NOS inhibitors were selected for further pre-clinical experimentation. Similarly, an already approved sGC stimulator was included repurposed for a non-cardiovascular indication. Wildtype mice were subjected to 1 h tMCAO and subsequently treated with each compound separately, in double combination or triple for later assessment of infarct volume 24 h post-stroke (FIG. 15A-G).

[3] = test system: Human Brain Microvascular Endothelial Cells (HBMEC); assay: HBMEC subjected to hypoxia (OGD), cell viability by MTT (Example 3); format: cell-based; settings: 6 h hypoxia, 24 h reperfusion; GKT136901 0.1 μM, BAY58-2667 0.01 μM, STMC 0.3 μM, alone or combined
Protocol: Human Brain Microvascular Endothelial Cells (HBMEC) Subjected to Hypoxia. —HBMEC (Cell systems, USA) between passage 3 and 9 were cultured using specialized cell medium enriched with 5% fetal bovine serum. HBMECs were seeded (6×10^4 cells/ml) in 12 wells-plates and incubated during 24 h at 37° C. Later, cell medium was replaced for non-FBS containing medium followed by 6 h of hypoxia (94.8% N2, 0.2% O2 and 5% CO2) at 37° C. using hypoxia workstations. The hypoxia period was followed by 24 h of reperfusion in presence or absence of GKT136901 (GKT, 0.1 μM; NOXi), BAY58-2667 (BAY58, 0.01 μM; sGCa) or S-methyl-1-thiocitrulline (STMC, 0.3 μM; NOSi) or a combination of the three. Control cells were exposed to normoxia (75% N2, 20% O2 and 5% CO2), normal glucose concentration and enriched medium during the hypoxia period (Basal). After 24 h reperfusion, cell viability was assessed using the colorimetric MTT assay. MTT solution (5 mg/ml) was added to each well (100 μl/ml) and incubated for 2 h at 37° C. The formazan salt formed was solubilized by adding […] DMSO and measured spectrophotometrically at 540 nm.

[4] = test system: mice subjected to 45 min tMCAO; assay: 45 min tMCAO in non-diabetic and STZ-diabetic mice, infarct size; format: in vivo; settings: i.p., GKT137831 10 mg/kg, SMTC 1 mg/kg, BAY58-2667 0.03 mg/kg, single or combined
Protocol: Diabetes was induced in mice (6-9 weeks old) by i.p. injections of streptozotocin (STZ) (Merck Millipore, The Netherlands) dissolved in 0.5M sodium citrate buffer with a final dose of 55 mg/kg during 5 consecutive days. Blood glucose was measured daily for 7 days after the last STZ injection using a glucometer (Contor XT, Ascensia Diabetes Care, The Netherlands). Blood glucose levels higher than 12 mM 7 days after STZ injections were considered diabetic and therefore included in the study. Diabetic mice were monitored daily for any signs of welfare discomfort, and blood glucose levels were followed-up weekly (FIG. 18 (Table S2), FIG. 19 (Table S3)).
Therefore, only the combination therapy was assessed.
After animal sacrificing, brains were quickly removed and cut into four 2 mm thick coronal sections using a mouse brain slicer matrix (Zivic Instruments, The Netherlands). Brain slices were kept at 4° C. during 5 min and later stained using 2% 2,3,5-triphenyltetrazolium (TTC; Sigma-Aldrich, The Netherlands) for 15 min at room temperature in PBS to visualize the infarctions. Indirect infarct volumes were calculated by volumetry (ImageJ software, National Institutes of Health, USA) according to the following equation:
Vindirect (mm^3)=Vinfarct×(1−(Vih−Vch)/Vch)
where the term (Vih−Vch) represents the volume difference between the ischemic hemisphere and the control hemisphere and (Vih−Vch)/Vch expresses this difference as a percentage of the control hemisphere.

[5] = test system: Human Brain Microvascular Endothelial Cells (HBMECs); assay: HBMEC under hypoxic conditions, cell viability by MTT (Example 5); format: cell-based; settings: 6 h hypoxia, 24 h re-oxygenation; GKT137831 0.3 μM, SMTC 0.1 μM, BAY 58-2667 0.03 μM, single or combined
Protocol: HBME cells (Cell systems, USA) between passage 3 and 9 were cultured to ˜95% confluence using a specialized cell medium and grow factors (EGM-2 MV BulletKit, Lonza, The Netherlands) enriched with 5% fetal bovine serum (FBS; Sigma-Aldrich, The Netherlands). Before being subjected to hypoxia, HBMECs were seeded at 6×10^4 cells/ml in 12 wells-plate and incubated for 24 h at 37° C. Then, the cell medium was replaced with non-FBS containing medium (2 ml/well) followed by 6 h of hypoxia (94.8% N2, 0.2% 02 and 5% CO2) at 37° C. using the hypoxia workstations (Ruskin Invivo2 400 station, The Netherlands). […] Control cells were exposed to normoxia (75% N2, 20% O2, and 5% CO2) and enriched medium during the hypoxia period.
24 h post-re-oxygenation, cell viability was assessed using the colorimetric MTT (3-(4,5-dimethylthiazol-2-yl)-2,5-diphenyltetrazolium bromide) assay (24). MTT solution (5 mg/ml) was added (100 μl/ml) and incubated for 2 h at 37° C. The formazan salt formed was solubilized by adding DMSO (250 μl/well) for later measuring spectrophotometrically its optical density at 540 nm.

## O=C(O)CCCCN(CCc1cc(F)ccc1OCc1ccc(-c2ccc(C(F)(F)F)cc2)cc1)Cc1ccc(C(=O)O)cc1 [BAY60-2770]
[1]
  cell viability (MTT reduction): Neither the NOSi (L-NAME), nor the sGCa (BAY60) alone was able to improve cell viability
[1]; listed as BAY
  cell viability (MTT reduction): did not show improved cell viability
[2]
  infarct volume: potent activity in reducing the infarct volume
[2]; listed as BAY60
  infarct volume: reduced infarct volume

## CCCc1cc(=O)[nH]c(=S)[nH]1 [PTU, propylthiouracil]
[2]
  infarct volume, subthreshold doses and triple combination: not able to reduce infarct volume; also recorded: no reduction of infarct volume; also recorded: without effect
  infarct size, single therapy: tends to reduce

## COC(=O)N(C)c1c(N)nc(-c2nn(Cc3ccccc3F)c3ncccc23)nc1N [Rio, riociguat]
[2]
  infarct volume, subthreshold doses and triple combination: not able to reduce infarct volume; also recorded: no reduction of infarct volume; also recorded: without effect
  infarct size, single therapy: significantly smaller infarct size

## CSC(N)=NCCC[C@H](N)C(=O)O [SMTC, S-Methyl-L-thiocitrulline]
[3]
  cell viability (MTT): only a relatively small improvement in cell viability
[4]
  infarct size 24 h post-stroke, non-diabetic mice: no effect was detected
[5]
  cell viability, normal glucose: no reduction was detected

## Cc1c2c(=O)n(-c3ccccc3Cl)[nH]c2cc(=O)n1Cc1ccccn1 [GKT136901]
[1]; listed as GKT
  cell viability (MTT reduction): able to restore the cell viability of the hippocampal cells to some extent; also recorded: able to improve cell viability
[2]
  infarct volume: potent activity in reducing the infarct volume
[3]
  cell viability (MTT): only a relatively small improvement in cell viability

## O=C(O)CCCCN(CCc1ccccc1OCc1ccc(CCc2ccccc2)cc1)Cc1ccc(C(=O)O)cc1 [BAY58-2667, cinaciguat]
[3]
  cell viability (MTT): lower cell viability than the control cells (Basal)
[4]
  infarct size 24 h post-stroke, non-diabetic mice: no effect was detected
[5]
  cell viability, normal glucose: no reduction was detected

## CN(C)c1cccc(-c2c3c(=O)n(-c4ccccc4Cl)[nH]c3cc(=O)n2C)c1 [GKT137831]
[4]
  infarct size 24 h post-stroke, non-diabetic mice: no effect was detected
[5]
  cell viability, normal glucose: no reduction was detected

## COC(=O)[C@@H](N)CCCNC(=N)N[N+](=O)[O-] [L-NAME, N omega-Nitro-L-arginine methyl ester]
[1]
  cell viability (MTT reduction): Neither the NOSi (L-NAME), nor the sGCa (BAY60) alone was able to improve cell viability
[1]; listed as LN
  cell viability (MTT reduction): able to restore the cell viability of the hippocampal cells to some extent
[2]
  infarct volume: potent activity in reducing the infarct volume
[2]; listed as LN
  infarct volume: reduced infarct volume

## OCCN1CCN(CCCN2c3ccccc3Sc3ccc(Cl)cc32)CC1 [PPZ, perphenazine]
[2]
  infarct volume, subthreshold doses and triple combination: not able to reduce infarct volume; also recorded: no reduction of infarct volume; also recorded: without effect
  infarct size, single therapy: significantly smaller infarct size
